Reference: patent US20090312280A1

How the values were obtained:
Fyn = Fyn (Homo sapiens, UniProt P06241); test: biochemical kinase screening assay
PKBa = PKBa (Homo sapiens, UniProt P31749); test: biochemical kinase screening assay
Rsk3 = Rsk3 (Homo sapiens, UniProt Q15349); test: biochemical
Abl(m) = Abl(m) (Mus musculus, UniProt P00520); test: biochemical kinase screening assay
K562 (Leukemia) = test: cell survival / MTT combination cytotoxicity; type: cell-based, human; conditions: Homo sapiens
EGFR2 = EGFR2 (Homo sapiens, UniProt P35968); test: biochemical kinase screening assay; conditions: read-out: IC50 (nM), given as Ki
PDK1 = PDK1 (Homo sapiens, UniProt O15530); test: biochemical kinase screening assay
Fms = Fms (Homo sapiens, UniProt P07333); test: biochemical kinase screening assay
Chain of Fms (P07333 20-972): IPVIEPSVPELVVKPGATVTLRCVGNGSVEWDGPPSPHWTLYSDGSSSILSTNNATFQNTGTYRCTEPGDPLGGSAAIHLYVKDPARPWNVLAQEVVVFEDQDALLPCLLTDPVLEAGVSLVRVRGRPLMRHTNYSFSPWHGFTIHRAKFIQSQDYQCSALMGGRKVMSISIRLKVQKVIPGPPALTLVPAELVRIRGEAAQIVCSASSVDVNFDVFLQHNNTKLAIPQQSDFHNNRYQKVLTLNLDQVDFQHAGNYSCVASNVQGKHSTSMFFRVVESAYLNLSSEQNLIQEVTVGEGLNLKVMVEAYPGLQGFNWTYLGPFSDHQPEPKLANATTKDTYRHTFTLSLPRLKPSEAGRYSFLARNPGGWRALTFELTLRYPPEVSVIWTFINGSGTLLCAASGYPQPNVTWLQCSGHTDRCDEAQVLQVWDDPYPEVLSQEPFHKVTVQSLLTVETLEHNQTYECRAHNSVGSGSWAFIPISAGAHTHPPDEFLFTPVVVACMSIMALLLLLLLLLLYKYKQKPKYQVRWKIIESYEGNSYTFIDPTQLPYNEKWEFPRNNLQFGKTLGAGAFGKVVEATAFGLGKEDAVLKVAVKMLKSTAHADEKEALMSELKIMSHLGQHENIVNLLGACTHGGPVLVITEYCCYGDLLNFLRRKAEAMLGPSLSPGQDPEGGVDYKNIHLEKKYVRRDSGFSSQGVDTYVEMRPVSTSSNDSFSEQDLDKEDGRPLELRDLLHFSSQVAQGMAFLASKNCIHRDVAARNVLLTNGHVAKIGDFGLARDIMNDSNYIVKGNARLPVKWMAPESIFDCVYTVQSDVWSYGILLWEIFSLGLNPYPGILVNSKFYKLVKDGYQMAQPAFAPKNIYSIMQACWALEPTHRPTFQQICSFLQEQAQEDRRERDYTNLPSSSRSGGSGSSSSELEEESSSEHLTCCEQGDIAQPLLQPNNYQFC

Ret = Ret (Homo sapiens, UniProt P07949); test: biochemical kinase screening assay
HT29 (Colon) = test: cell survival / MTT combination cytotoxicity; type: cell-based, human; conditions: Homo sapiens, HT-29
Colo205 (Colon) = test: cell survival / MTT combination cytotoxicity; type: cell-based, human; conditions: Homo sapiens, COLO 205
mutant p53 HCT116 cells = test: cell survival assay, transiently transfected p53 mutant; type: cell-based, human; conditions: Compound 1 + gemcitabine compared with gemcitabine alone
Experimental: The cytotoxic effect induced by the combination treatment in HUVEC cells is negligible compared with the cytotoxicity induced by the same treatment in tumor cells. […] A cell survival assay was also performed in HTC116 cells (human colon carcinoma) that were transiently transfected with a plasmid containing either p53 wild type or mutant.

PRK2 = PRK2 (Homo sapiens, UniProt Q16513); test: biochemical kinase screening assay
FGFR3 = FGFR3 (Homo sapiens, UniProt P22607); test: biochemical kinase screening assay
EphB4 = EphB4 (Homo sapiens, UniProt P54760); test: biochemical kinase screening assay
Chain of EphB4 (P54760 16-987): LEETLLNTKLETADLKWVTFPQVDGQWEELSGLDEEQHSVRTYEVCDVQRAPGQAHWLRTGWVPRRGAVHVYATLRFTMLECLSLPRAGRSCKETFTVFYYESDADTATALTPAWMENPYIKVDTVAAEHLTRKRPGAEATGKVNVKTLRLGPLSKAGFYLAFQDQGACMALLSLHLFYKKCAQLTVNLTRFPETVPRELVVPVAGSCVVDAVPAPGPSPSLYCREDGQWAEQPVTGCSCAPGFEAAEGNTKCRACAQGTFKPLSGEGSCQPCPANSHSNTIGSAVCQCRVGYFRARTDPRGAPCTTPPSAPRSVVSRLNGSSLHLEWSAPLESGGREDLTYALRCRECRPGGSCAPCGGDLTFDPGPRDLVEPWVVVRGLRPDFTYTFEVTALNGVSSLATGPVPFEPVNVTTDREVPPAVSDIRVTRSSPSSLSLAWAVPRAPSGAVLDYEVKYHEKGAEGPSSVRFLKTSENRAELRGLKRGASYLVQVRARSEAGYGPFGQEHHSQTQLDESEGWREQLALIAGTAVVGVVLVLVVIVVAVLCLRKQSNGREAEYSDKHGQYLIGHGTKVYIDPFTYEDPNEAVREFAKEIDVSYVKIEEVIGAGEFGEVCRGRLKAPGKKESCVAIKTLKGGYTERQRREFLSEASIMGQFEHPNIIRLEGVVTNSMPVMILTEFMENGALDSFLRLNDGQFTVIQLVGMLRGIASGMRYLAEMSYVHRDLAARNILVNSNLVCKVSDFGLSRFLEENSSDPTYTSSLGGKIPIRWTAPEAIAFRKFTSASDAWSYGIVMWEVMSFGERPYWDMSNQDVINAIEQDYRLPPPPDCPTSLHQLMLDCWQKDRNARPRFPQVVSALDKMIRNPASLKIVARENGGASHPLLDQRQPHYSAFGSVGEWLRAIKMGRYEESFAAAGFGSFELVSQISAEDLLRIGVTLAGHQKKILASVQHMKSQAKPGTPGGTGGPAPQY

A431 tumor xenografts = test: in vivo radio sensitizing study, A431 xenograft; set-up: species or system mice; conditions: for Normalized Tumor Growth Delay: versus drug alone; for Tumor Growth Delay: versus vehicle control
Excerpt: Female Balb/c nude mice (Age 6 weeks) were inoculated on the right hind limb with 3×10^6 A431 cells in PBS and allowed the tumor to grow to a mean tumor volume ˜100 mm^3. The mice were randomized into groups of 10 animals each group.
The unanaesthetized mice were then subjected to radiation. Radiation was delivered using a 6 MeV high dose rate electron beam from a Varian 2100 Linear Accelerator (Palo Alto, Calif.). The dose rate used was 20 Gy/min. The depth-dose characteristics of the electron beam were such that dose uniformity to within ±5 % was obtained over a 10 mm depth of tissue. This was sufficient to cover all tumor irradiated. The tumor was irradiated though a 25 mm square collimator cut from 3 mm thick lead sheet attached to a 6 mm thick Perspex sheet. The separation between the tumor and the lower (Perspex) side of the surface collimator was approximately 25 mm. The apparatus was supported on a plate heated to 37° C. in order to reduce the effects of heat loss in the mice. Radiation doses were calculated and delivered by a senior radiation physicist. Radiotherapy was given as described above on Days 0-4 as 2, 3 or 4 Gy daily fractions.
The solution was prepared immediately prior to dosing and (15 mg/kg) was administered by intraperitoneal injection at 15 mg/kg on Days 0-4 immediately following radiotherapy. The above solution that contains no Compound 1 is considered as the “drug vehicle” or “vehicle”. Drug vehicle was administered at 0.1 ml/10 g body weight on the same schedule.
Each group of mice were treated with Compound 1 only, radiation only, or the combination of Compound 1 and radiation. Animals were sacrificed when Tumor Volume Ratio (TVR) reached or exceeded 4 or if the mouse had lost more than 15% of its baseline body weight at Day 0. Tumor Volume Ratio is defined as the ratio between the tumors volume at a particular time and the baseline tumor volume, which is the tumor volume at Day 0.
Tumor volume was measured three times weekly from day 0 to day 11 and even further to day 23. Tumor volume was measured using electronic calipers and calculated as length/2×width^2. The mean tumor volume was calculated for each group of mice.
Tumor growth delay is defined as the median time in days for tumors to reach a TVR of 4 minus time for vehicle control tumors to reach the same size. Normalized growth delay is defined as the time in days for tumors in combination treated mice to reach TVR of 4 minus time in days for tumors in drug alone treated mice to reach the same size. Enhancement ratio is defined as normalized tumor growth delay in mice treated with drug and radiation divided by tumor growth delay in mice treated with radiation alone.

Lck = Lck (Homo sapiens, UniProt P06239); test: biochemical
Chain of Lck (P06239 whole entry): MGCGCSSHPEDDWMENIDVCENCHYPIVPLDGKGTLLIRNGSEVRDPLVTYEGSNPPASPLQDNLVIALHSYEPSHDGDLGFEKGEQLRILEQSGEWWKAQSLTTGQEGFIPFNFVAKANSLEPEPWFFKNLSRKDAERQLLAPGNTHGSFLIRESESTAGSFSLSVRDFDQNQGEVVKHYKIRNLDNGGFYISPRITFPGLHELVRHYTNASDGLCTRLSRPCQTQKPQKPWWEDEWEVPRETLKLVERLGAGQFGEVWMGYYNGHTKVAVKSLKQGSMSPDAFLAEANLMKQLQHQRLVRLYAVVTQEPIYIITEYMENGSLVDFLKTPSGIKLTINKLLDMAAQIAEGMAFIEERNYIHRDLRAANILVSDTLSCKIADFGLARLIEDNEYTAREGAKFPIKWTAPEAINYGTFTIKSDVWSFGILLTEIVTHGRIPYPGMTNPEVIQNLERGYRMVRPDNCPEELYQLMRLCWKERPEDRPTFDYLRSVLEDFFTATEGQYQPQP

Lyn = Lyn (Homo sapiens, UniProt P07948); test: biochemical kinase screening assay
[1] = Compound 1 15 mg/kg IP plus Radiation (2 Gy × 5)
[2] = Compound 1 15 mg/kg IP plus Radiation (3 Gy × 5)
[3] = Compound 1 15 mg/kg IP plus Radiation (4 Gy × 5)
[4] = Compound 1 alone, 15 mg/kg IP Days 0-4

Chain of Fyn (P06241 whole entry): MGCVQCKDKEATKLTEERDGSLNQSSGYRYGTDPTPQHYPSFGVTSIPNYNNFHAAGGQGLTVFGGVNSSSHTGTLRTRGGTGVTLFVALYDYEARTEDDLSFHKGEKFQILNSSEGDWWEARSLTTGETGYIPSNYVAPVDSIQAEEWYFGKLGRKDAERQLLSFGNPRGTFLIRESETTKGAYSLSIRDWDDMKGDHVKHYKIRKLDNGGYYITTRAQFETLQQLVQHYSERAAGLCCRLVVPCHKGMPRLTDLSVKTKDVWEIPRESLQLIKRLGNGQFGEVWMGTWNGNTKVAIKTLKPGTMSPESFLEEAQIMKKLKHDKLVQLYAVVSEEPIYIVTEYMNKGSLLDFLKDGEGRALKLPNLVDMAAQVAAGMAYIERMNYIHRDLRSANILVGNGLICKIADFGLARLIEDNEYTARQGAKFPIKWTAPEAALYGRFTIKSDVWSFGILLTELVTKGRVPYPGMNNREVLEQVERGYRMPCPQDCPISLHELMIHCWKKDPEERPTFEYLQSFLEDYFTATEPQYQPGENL
Chain of Abl(m) (P00520 whole entry): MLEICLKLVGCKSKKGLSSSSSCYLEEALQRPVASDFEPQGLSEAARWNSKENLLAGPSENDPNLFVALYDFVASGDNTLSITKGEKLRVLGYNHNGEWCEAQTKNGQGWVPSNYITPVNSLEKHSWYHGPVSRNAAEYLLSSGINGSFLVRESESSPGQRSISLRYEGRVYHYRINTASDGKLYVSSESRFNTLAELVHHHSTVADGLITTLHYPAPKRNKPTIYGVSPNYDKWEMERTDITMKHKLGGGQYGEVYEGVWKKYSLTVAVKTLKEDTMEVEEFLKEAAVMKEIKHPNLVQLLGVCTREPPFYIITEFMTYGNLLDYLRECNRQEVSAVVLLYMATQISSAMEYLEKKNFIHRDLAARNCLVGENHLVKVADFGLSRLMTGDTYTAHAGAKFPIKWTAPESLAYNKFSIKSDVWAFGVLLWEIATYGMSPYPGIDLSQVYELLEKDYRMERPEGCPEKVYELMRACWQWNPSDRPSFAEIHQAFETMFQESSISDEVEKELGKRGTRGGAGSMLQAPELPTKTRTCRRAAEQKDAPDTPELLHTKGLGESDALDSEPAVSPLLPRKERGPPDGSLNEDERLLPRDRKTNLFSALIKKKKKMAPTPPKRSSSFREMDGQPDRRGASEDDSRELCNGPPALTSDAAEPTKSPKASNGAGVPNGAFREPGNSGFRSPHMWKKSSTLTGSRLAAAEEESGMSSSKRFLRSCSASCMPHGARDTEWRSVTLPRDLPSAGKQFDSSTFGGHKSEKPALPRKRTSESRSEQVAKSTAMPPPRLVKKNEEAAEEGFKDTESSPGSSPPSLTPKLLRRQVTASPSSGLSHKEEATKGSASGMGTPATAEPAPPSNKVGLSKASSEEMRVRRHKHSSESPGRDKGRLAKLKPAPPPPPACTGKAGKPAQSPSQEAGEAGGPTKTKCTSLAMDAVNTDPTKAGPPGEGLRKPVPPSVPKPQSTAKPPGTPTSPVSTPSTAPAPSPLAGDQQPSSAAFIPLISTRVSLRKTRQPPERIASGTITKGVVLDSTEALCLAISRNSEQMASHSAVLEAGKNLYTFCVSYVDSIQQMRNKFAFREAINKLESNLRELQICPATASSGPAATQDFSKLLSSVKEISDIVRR
Chain of PKBa (P31749 whole entry): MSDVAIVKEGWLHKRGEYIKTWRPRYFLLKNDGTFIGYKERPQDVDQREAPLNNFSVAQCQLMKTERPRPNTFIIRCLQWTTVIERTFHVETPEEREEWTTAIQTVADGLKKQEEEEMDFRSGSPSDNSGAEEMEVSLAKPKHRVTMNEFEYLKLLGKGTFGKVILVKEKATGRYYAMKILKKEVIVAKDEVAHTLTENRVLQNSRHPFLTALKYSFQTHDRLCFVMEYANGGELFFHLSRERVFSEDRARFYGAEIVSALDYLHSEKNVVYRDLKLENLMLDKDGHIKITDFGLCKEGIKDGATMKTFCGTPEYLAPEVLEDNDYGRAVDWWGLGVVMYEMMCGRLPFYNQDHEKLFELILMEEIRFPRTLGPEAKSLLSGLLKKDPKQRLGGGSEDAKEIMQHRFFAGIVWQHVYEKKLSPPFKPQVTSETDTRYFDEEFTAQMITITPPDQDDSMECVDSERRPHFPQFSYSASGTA

`Cn1cc(-c2[nH]c3cc(NC(=O)[C@H](N)C4CCCCC4)cc4c3c2C=NNC4=O)cn1` [Compound 1] was tested, and the IC50 (Fyn) was 0.953 µM, the IC50 (PKBa) was 9.2 µM and the IC50 (Rsk3) was 0.171 µM. For the same molecule, the IC50 (Abl(m)) was 0.929 µM, the IC50 (K562 (Leukemia)) was 0.42 µM and the Ki (EGFR2) was 8 nM. For the same molecule, the IC50 (PDK1) was 0.439 µM, the IC50 (Fms) was 0.01 µM and the IC50 (Ret) was 0.039 µM. It also gave an IC50 (HT29 (Colon)) of 1.8 µM, an IC50 (Colo205 (Colon)) of 1.3 µM and a cell growth inhibition (mutant p53 HCT116 cells) of 44%. For the same molecule, the IC50 (PRK2) was 1.98 µM, the IC50 (FGFR3) was 0.023 µM and the IC50 (EphB4) was > 10 µM. For the same molecule, the “Median time to TVR = 4” value (A431 tumor xenografts; [1]) was 11.1 days, the “Normalized Tumor Growth Delay” value (A431 tumor xenografts; [1]) was 3.75 days and the “Tumor Growth Delay” value (A431 tumor xenografts; [1]) was 2.7 days. The “Median time to TVR = 4” value (A431 tumor xenografts; [2]) was 15.1 days, the “Normalized Tumor Growth Delay” value (A431 tumor xenografts; [2]) was 7.75 days and the “Tumor Growth Delay” value (A431 tumor xenografts; [2]) was 6.7 days. For the same molecule, the “Median time to TVR = 4” value (A431 tumor xenografts; [3]) was 13 days, the “Normalized Tumor Growth Delay” value (A431 tumor xenografts; [3]) was 5.65 days and the “Tumor Growth Delay” value (A431 tumor xenografts; [3]) was 4.6 days. For the same molecule, the “Median time to TVR = 4” value (A431 tumor xenografts; [4]) was 7.35 days, the “Tumor Growth Delay” value (A431 tumor xenografts; [4]) was -1.05 days and the mean tumor volume (A431 tumor xenografts; day 0, 2 Gy + Cmpd 1 15 mg/kg IP, Days 0-4) was 94.51 mm^3. For the same molecule, the mean tumor volume (A431 tumor xenografts; day 0, 3 Gy + Cmpd 1 15 mg/kg IP, Days 0-4) was 104.26 mm^3, the mean tumor volume (A431 tumor xenografts; day 0, 4 Gy + Cmpd 1 15 mg/kg IP, Days 0-4) was 101.97 mm^3 and the mean tumor volume (A431 tumor xenografts; day 0, Cmpd 1 only, 15 mg/kg IP Days 0-4) was 104.23 mm^3. The mean tumor volume (A431 tumor xenografts; day 2, 2 Gy + Cmpd 1 15 mg/kg IP, Days 0-4) was 145.53 mm^3, the mean tumor volume (A431 tumor xenografts; day 2, 3 Gy + Cmpd 1 15 mg/kg IP, Days 0-4) was 149.88 mm^3 and the mean tumor volume (A431 tumor xenografts; day 2, 4 Gy + Cmpd 1 15 mg/kg IP, Days 0-4) was 150.81 mm^3. For the same molecule, the mean tumor volume (A431 tumor xenografts; day 2, Cmpd 1 only, 15 mg/kg IP Days 0-4) was 158.07 mm^3, the mean tumor volume (A431 tumor xenografts; day 4, 2 Gy + Cmpd 1 15 mg/kg IP, Days 0-4) was 198.57 mm^3 and the mean tumor volume (A431 tumor xenografts; day 4, 3 Gy + Cmpd 1 15 mg/kg IP, Days 0-4) was 210.23 mm^3. The mean tumor volume (A431 tumor xenografts; day 4, 4 Gy + Cmpd 1 15 mg/kg IP, Days 0-4) was 209.44 mm^3, the mean tumor volume (A431 tumor xenografts; day 4, Cmpd 1 only, 15 mg/kg IP Days 0-4) was 242.46 mm^3 and the mean tumor volume (A431 tumor xenografts; day 7, 2 Gy + Cmpd 1 15 mg/kg IP, Days 0-4) was 255.23 mm^3. It also gave a mean tumor volume (A431 tumor xenografts; day 7, 3 Gy + Cmpd 1 15 mg/kg IP, Days 0-4) of 200.48 mm^3, a mean tumor volume (A431 tumor xenografts; day 7, 4 Gy + Cmpd 1 15 mg/kg IP, Days 0-4) of 307.93 mm^3 and a mean tumor volume (A431 tumor xenografts; day 7, Cmpd 1 only, 15 mg/kg IP Days 0-4) of 418.28 mm^3. For the same molecule, the mean tumor volume (A431 tumor xenografts; day 9, 2 Gy + Cmpd 1 15 mg/kg IP, Days 0-4) was 339.76 mm^3, the mean tumor volume (A431 tumor xenografts; day 9, 3 Gy + Cmpd 1 15 mg/kg IP, Days 0-4) was 164.45 mm^3 and the mean tumor volume (A431 tumor xenografts; day 9, 4 Gy + Cmpd 1 15 mg/kg IP, Days 0-4) was 294.63 mm^3. It also gave a mean tumor volume (A431 tumor xenografts; day 9, Cmpd 1 only, 15 mg/kg IP Days 0-4) of 580.35 mm^3, a mean tumor volume (A431 tumor xenografts; day 11, 2 Gy + Cmpd 1 15 mg/kg IP, Days 0-4) of 401.96 mm^3 and a mean tumor volume (A431 tumor xenografts; day 11, 3 Gy + Cmpd 1 15 mg/kg IP, Days 0-4) of 210.35 mm^3. It also gave a mean tumor volume (A431 tumor xenografts; day 11, 4 Gy + Cmpd 1 15 mg/kg IP, Days 0-4) of 487.78 mm^3, a mean tumor volume (A431 tumor xenografts; day 11, Cmpd 1 only, 15 mg/kg IP Days 0-4) of 790.82 mm^3 and a mean tumor volume (A431 tumor xenografts; day 14, 2 Gy + Cmpd 1 15 mg/kg IP, Days 0-4) of 644.80 mm^3. For the same molecule, the mean tumor volume (A431 tumor xenografts; day 14, 3 Gy + Cmpd 1 15 mg/kg IP, Days 0-4) was 283.51 mm^3, the mean tumor volume (A431 tumor xenografts; day 14, 4 Gy + Cmpd 1 15 mg/kg IP, Days 0-4) was 815.01 mm^3 and the mean tumor volume (A431 tumor xenografts; day 16, 3 Gy + Cmpd 1 15 mg/kg IP, Days 0-4) was 408.01 mm^3. The mean tumor volume (A431 tumor xenografts; day 18, 3 Gy + Cmpd 1 15 mg/kg IP, Days 0-4) was 433.83 mm^3, the mean tumor volume (A431 tumor xenografts; day 21, 3 Gy + Cmpd 1 15 mg/kg IP, Days 0-4) was 395.17 mm^3 and the mean tumor volume (A431 tumor xenografts; day 23, 3 Gy + Cmpd 1 15 mg/kg IP, Days 0-4) was 513.31 mm^3. For the same molecule, the IC50 (Lck) was 0.396 µM and the IC50 (Lyn) was 0.266 µM.
